In PubChem BioAssay (NCI):
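Grown in 96-well plates, cells were treated for 48 hours with each compound at five concentrations. Insufficient inhibition: endpoint recorded as highest concentration tested. At the TGI there is no net growth.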

Assays:
Assay in all cases: inhibition of tumour cell growth, NCI panel, 48 h
786-0 renal = tested on: 786-0 renal
HCT-15 colon = tested on: HCT-15 colon
LOX IMVI melanoma = tested on: LOX IMVI melanoma
M14 melanoma = tested on: M14 melanoma
MDA-MB-231 breast = tested on: MDA-MB-231 breast
NCI/ADR-RES ovarian = tested on: NCI/ADR-RES ovarian
OVCAR-4 ovarian = tested on: OVCAR-4 ovarian
PC-3 prostate = tested on: PC-3 prostate
RPMI-8226 leukemia = tested on: RPMI-8226 leukemia
SF-268 CNS = tested on: SF-268 CNS
SF-539 CNS = tested on: SF-539 CNS
SW-620 colon = tested on: SW-620 colon
UACC-257 melanoma = tested on: UACC-257 melanoma

Row | Compound | TGI (786-0 renal) | TGI (HCT-15 colon) | TGI (LOX IMVI melanoma) | TGI (M14 melanoma) | TGI (MDA-MB-231 breast) | TGI (NCI/ADR-RES ovarian) | TGI (OVCAR-4 ovarian) | TGI (PC-3 prostate) | TGI (RPMI-8226 leukemia) | TGI (SF-268 CNS) | TGI (SF-539 CNS) | TGI (SW-620 colon) | TGI (UACC-257 melanoma)
1 | CCCCCC(=O)OCC(=O)[C@H]1[C@H](C)C[C@H]2[C@@H]3C[C@H](F)C4=C/C(=N/OC(=O)c5cccc6c(=O)c7ccccc7[nH]c56)C=C[C@]4(C)[C@H]3[C@@H](O)C[C@@]21C | > 100 µM | > 100 µM | 35.7 µM | 77.9 µM | > 100 µM | 41.1 µM | > 100 µM | 53.8 µM | 14.9 µM | > 100 µM | > 100 µM | > 100 µM | 62 µM
2 | CC1(C)OC(=O)C(C)(C)OC1=O | > 100 µM | > 100 µM | > 100 µM | > 100 µM | > 100 µM | > 100 µM | > 100 µM | > 100 µM | > 100 µM | > 100 µM | > 100 µM | > 100 µM | > 100 µM
3 | NC(C(F)(F)F)(C(F)(F)F)P(=O)(c1ccccc1)c1ccccc1 | > 100 µM | > 100 µM | > 100 µM | > 100 µM | > 100 µM | > 100 µM | > 100 µM | > 100 µM | > 100 µM | > 100 µM | > 100 µM | > 100 µM | > 100 µM
4 | CC1=NN2C(=O)CC(=O)N=C2S1 | > 100 µM | > 100 µM | > 100 µM | > 100 µM | > 100 µM | > 100 µM | > 100 µM | > 100 µM | > 100 µM | > 100 µM | > 100 µM | > 100 µM | > 100 µM
5 | COc1ccc(C2SC(N)=Nc3c2c(C)nn3C(=O)c2ccc(Cl)cc2)cc1 (stereo not given) | > 10 µM | > 10 µM | > 10 µM | > 10 µM | > 10 µM | > 10 µM | > 10 µM | > 10 µM | > 10 µM | > 10 µM | > 10 µM | > 10 µM | > 10 µM
6 | CC1(C)C=C(/C=N/Nc2ccc(Br)cc2)C(C#N)=C(O)C1(C#N)C#N | > 100 µM | – | > 100 µM | > 100 µM | > 100 µM | > 100 µM | > 100 µM | 63.9 µM | > 100 µM | > 100 µM | > 100 µM | > 100 µM | > 100 µM
7 | COc1cc(C)cc2c1C(=O)C(Br)=CC2=O | 8.16 µM | 40.6 µM | 25.7 µM | 14.1 µM | 30.2 µM | 74.9 µM | 7.71 µM | 31.3 µM | – | 35.8 µM | 28.5 µM | 3.62 µM | 26.7 µM
8 | CC(=O)n1nc(-c2nc3ccccc3nc2Cl)cc1Cl | 78.8 µM | 57.3 µM | 33.3 µM | 19.4 µM | > 100 µM | 55.8 µM | 53.3 µM | > 100 µM | > 100 µM | > 100 µM | 10.1 µM | > 100 µM | > 100 µM
9 | CC1(C)C=[N+]([O-])C(C)(C)N1 | > 100 µM | > 100 µM | > 100 µM | > 100 µM | > 100 µM | > 100 µM | > 100 µM | > 100 µM | > 100 µM | > 100 µM | > 100 µM | > 100 µM | > 100 µM
